Experimental data from the supplement of paper PMC10307832.

Experiments:
Test in all cases: relative viability (nuclei count vs DMSO), 5 days (fraction); higher = more cells survive
Avagacestat + Pictilisib = compound: NC(=O)[C@@H](CCC(F)(F)F)N(Cc1ccc(-c2ncon2)cc1F)S(=O)(=O)c1ccc(Cl)cc1 [Avagacestat] + CS(=O)(=O)N1CCN(Cc2cc3nc(-c4cccc5[nH]ncc45)nc(N4CCOCC4)c3s2)CC1 [Pictilisib] (partner 1 µM)
In short: (§1)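 Lung cancer cell lines, seeded in 1536-well plates, were treated the following day by pin tool with a single drug or with five library-drug doses (not always all listed) in √10 steps on top of a fixed anchor-drug dose. Cells were fixed and nuclei stained in one step after 5 days, and nuclei were counted. Relative viability is the nuclei count for treated wells divided by that for vehicle wells, reported as medians of duplicate plates.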

Avagacestat + Linsitinib = compound: NC(=O)[C@@H](CCC(F)(F)F)N(Cc1ccc(-c2ncon2)cc1F)S(=O)(=O)c1ccc(Cl)cc1 [Avagacestat] + C[C@]1(O)C[C@@H](c2nc(-c3ccc4ccc(-c5ccccc5)nc4c3)c3c(N)nccn32)C1 [Linsitinib] (partner 1 µM)
In short: as §1

Avagacestat + Alpelisib = compound: NC(=O)[C@@H](CCC(F)(F)F)N(Cc1ccc(-c2ncon2)cc1F)S(=O)(=O)c1ccc(Cl)cc1 [Avagacestat] + Cc1nc(NC(=O)N2CCC[C@H]2C(N)=O)sc1-c1ccnc(C(C)(C)C(F)(F)F)c1 [Alpelisib] (partner 2 µM)
In short: as §1

Avagacestat + Decitabine = compound: NC(=O)[C@@H](CCC(F)(F)F)N(Cc1ccc(-c2ncon2)cc1F)S(=O)(=O)c1ccc(Cl)cc1 [Avagacestat] + Nc1ncn([C@H]2C[C@H](O)[C@@H](CO)O2)c(=O)n1 [Decitabine] (partner 2 µM)
In short: as §1

Cell Line | relative viability (Avagacestat + Pictilisib; first compound 0.08 µM) | relative viability (Avagacestat + Pictilisib; first compound 0.253 µM) | relative viability (Avagacestat + Pictilisib; first compound 0.8 µM) | relative viability (Avagacestat + Pictilisib; first compound 2.53 µM) | relative viability (Avagacestat + Pictilisib; first compound 8 µM) | relative viability (Avagacestat + Linsitinib; first compound 0.08 µM) | relative viability (Avagacestat + Linsitinib; first compound 0.253 µM) | relative viability (Avagacestat + Linsitinib; first compound 0.8 µM) | relative viability (Avagacestat + Linsitinib; first compound 2.53 µM) | relative viability (Avagacestat + Linsitinib; first compound 8 µM) | relative viability (Avagacestat + Alpelisib; first compound 0.08 µM) | relative viability (Avagacestat + Alpelisib; first compound 0.253 µM) | relative viability (Avagacestat + Alpelisib; first compound 0.8 µM) | relative viability (Avagacestat + Alpelisib; first compound 2.53 µM) | relative viability (Avagacestat + Alpelisib; first compound 8 µM) | relative viability (Avagacestat + Decitabine; first compound 0.08 µM) | relative viability (Avagacestat + Decitabine; first compound 0.253 µM) | relative viability (Avagacestat + Decitabine; first compound 0.8 µM) | relative viability (Avagacestat + Decitabine; first compound 2.53 µM) | relative viability (Avagacestat + Decitabine; first compound 8 µM)
HCC-15 | 0.837 | 0.801 | 0.802 | 0.808 | 0.611 | 0.985 | 0.998 | 0.874 | 0.936 | 0.755 | 1.01 | 1.05 | 0.93 | 0.861 | 0.802 | 0.791 | 0.745 | 0.705 | 0.575 | 0.523
SK-LU-1 | 0.628 | 0.526 | 0.586 | – | 0.354 | 1.13 | 1.3 | 1.02 | 0.918 | 0.983 | 1.02 | 0.633 | 0.937 | 0.773 | 0.807 | 0.66 | 0.638 | 0.699 | 0.53 | 0.552
NCI-H1944 | 0.349 | 0.374 | 0.357 | 0.32 | 0.33 | 1.28 | 1.15 | 1.47 | 1.04 | 1.01 | 0.874 | 0.857 | 0.844 | 0.667 | 0.758 | 0.452 | 0.475 | 0.402 | 0.406 | 0.428
HARA | 0.368 | 0.517 | 0.417 | 0.342 | 0.373 | 1.29 | 1.28 | 1.01 | 0.79 | 0.907 | 0.914 | 0.783 | 0.929 | 0.782 | 0.567 | 0.4 | 0.377 | 0.621 | 0.435 | 0.448
NCI-H596 | 0.414 | 0.43 | 0.395 | 0.354 | 0.374 | 1.15 | 1.21 | 1 | 0.827 | 0.986 | 0.584 | 0.482 | 0.479 | 0.466 | 0.491 | 1.09 | 1.01 | 1.28 | 0.906 | 0.928
NCI-H1395 | 0.601 | 0.735 | 0.658 | 0.488 | 0.702 | 1.11 | 1.1 | 1.04 | 0.869 | 0.881 | 0.938 | 0.996 | 0.879 | 1.05 | 0.943 | 0.719 | 0.717 | 0.67 | 0.692 | 0.681
NCI-H2023 | 0.249 | 0.225 | 0.255 | 0.184 | 0.185 | 0.789 | 0.784 | 0.628 | 0.606 | 0.47 | 0.659 | 0.781 | 0.536 | 0.562 | 0.536 | 0.255 | 0.257 | 0.288 | 0.221 | 0.218
